Test results taken from patent US20220169680A1 (priority 2018, published 2022).
Entries after “also recorded” stand apart in the source; their conditions may differ.

Experiments:
[1] = test system: LPS-induced acute lung injury in mice; set-up: species or system C57 BL/6 male mice; conditions: mouse, in vivo
[2] = test system: LPS-induced acute lung injury in mice; conditions: mouse, in vivo; cited from earlier work
[3] = test system: 3′ UTR region of RELA gene; format: cell-based
[4] = test system: A549 cells; format: cell-based
[5] = test system: A549 cells; format: cell-based; remark: listed apart in the source
[6] = test system: A549 cells; format: cell-based; remark: listed apart in the source
[7] = test system: A549 cells; format: cell-based; remark: listed apart in the source
[8] = test system: A549 cells; format: cell-based; remark: listed apart in the source
[9] = test system: MRCS cells; format: cell-based
[10] = test system: 3′ UTR region of COLLAGEN3A1 gene; format: cell-based
[11] = test system: A549 cells; format: cell-based; remark: listed apart in the source
[12] = test system: murine organs; set-up: species or system C57 BL/6 male mice; conditions: mouse, in vivo
[13] = test system: A549 cells; format: cell-based; remark: listed apart in the source
[14] = test system: LPS-induced acute lung injury in mice; set-up: species or system C57 BL/6 male mice; conditions: mouse, in vivo; remark: listed apart in the source
[15] = test system: HeLa cells; format: cell-based
[16] = test system: poly(I:C)-induced acute lung injury mouse model; set-up: species or system C57 BL/6 male mice; conditions: in vivo
[17] = test system: 293T cell, HUVEC cell, HCT-116 cell, MKN-45 cell, MRCS cell, U397 cell and ESF-1 cell; format: cell-based
[18] = test system: HEK293T cells; format: cell-based
[19] = test system: A549 cells; format: cell-based; remark: listed apart in the source

COc1cc(C2Oc3cc([C@H]4Oc5cc(O)cc(O)c5C(=O)[C@@H]4O)ccc3OC2CO)ccc1O (stereo partly shown) [silybin, reference compound]
effect on preventing lung injury (IL-6 in alveolar lavage fluid) [1]: had a tendency to prevent lung injury at this dose | effect on LPS-induced acute lung injury in mice [2]: can effectively reduce the LPS-induced acute lung injury in mice

DRLFFKCIYRRLK [Jilin-2004(H5N1)-M2-44-56]
ability to carry PGY-dsRNA-6 compared with positive control TAT [3]: stronger than that of the positive control TAT | carrying PGY-dsRNA-6 into cells and fulfilling its function (luciferase reporter) [3]: could all carry PGY-dsRNA-6 into cells and fulfill its function | cell-penetrating peptide function compared with positive control TAT [4]: stronger than that of the positive control TAT | carrying Cy3-labeled small RNA into cells [5]: can carry small RNA into cells | effect compared with transfection reagent RNAiMax [5]: stronger than that of the transfection reagent RNAiMax | cell entry of polypeptide carrying GFP protein [6]: observed | effect of carrying GFP protein compared with positive control TAT [6]: stronger than that of the positive control TAT | ability to carry small RNA compared with TAT at the same concentration [7]: significantly stronger | carrying FAM-labeled small RNA into cells [7]: can all carry small RNA into cells | ability to carry proteins into the cell compared with TAT at the same concentration [8]: significantly stronger | carrying β-galactosidase protein into the cell [8]: could carry β-galactosidase protein into the cell

DRLFFKCIYRRLKYGLKR [Jilin-2004(H5N1)-M2-44-61]
ability to carry PGY-dsRNA-6 compared with positive control TAT [3]: stronger than that of the positive control TAT | carrying PGY-dsRNA-6 into cells and fulfilling its function (luciferase reporter) [3]: could all carry PGY-dsRNA-6 into cells and fulfill its function | cell-penetrating peptide effect compared with transfection reagent RNAiMax [3]: close to the transfection reagent RNAiMax | cell penetration properties [9]: consistent with the results obtained using A549 cells | amount of cell entry versus incubation duration [4]: increased as the incubation duration increased | cell entry [4]: entered A549 cells | cell entry after 5 min incubation [4]: cell entry could be detected; also recorded: the entry into the cell was observed | cell entry at 30 min [4]: had a strong entry effect | cell entry at lower concentrations [4]: could still enter A549 cells | cell entry effect compared with TAT at the same time points [4]: much stronger than that of the positive control TAT polypeptide | cell entry effect compared with TAT positive control [4]: stronger than that of the TAT polypeptide | cell entry effect compared with existing cell-penetrating peptides (Table 4) [4]: significantly better cell entry effects than existing cell-penetrating peptides | cell entry effect compared with the other three penetrating polypeptides [4]: even better cell entry effect | cell-penetrating peptide function compared with positive control TAT [4]: stronger than that of the positive control TAT | difference in entry effects between 1 h, 3 h and 6 h [4]: little difference in entry effects | entry effect compared with other C-terminally truncated polypeptides [4]: even better entry effects than other polypeptides | ability to carry HJT-sRNA-m7 compared with positive control TAT [10]: stronger than that of the positive control TAT | carrying HJT-sRNA-m7 into cells and fulfilling its function (luciferase reporter) [10]: could carry HJT-sRNA-m7 into cells and fulfill its function | cell-penetrating peptide effect compared with transfection reagent RNAiMax [10]: close to the transfection reagent RNAiMax | carrying Cy3-labeled small RNA into cells [5]: can carry small RNA into cells | effect compared with transfection reagent RNAiMax [5]: stronger than that of the transfection reagent RNAiMax | carrying Cy3-labeled small RNA into cells (super high resolution microscope) [11]: can carry Cy3-labeled small RNA into A549 cells | effect compared with RNAiMax or TAT (super high resolution microscope) [11]: stronger than that of the transfection reagent RNAiMax or of TAT | ability to deliver small RNA compared with TAT [12]: significantly stronger than that of TAT | murine organs or tissues in which small RNA was detected [12]: detected in 8 murine organs or tissues, including heart, liver, spleen, lung, kidney, stomach, small intestine and thymus | delivery of small RNAs to murine organs ([12]; ip): could effectively deliver small RNAs (PGY-sRNA-23 and PGY-sRNA-26) to murine organs | effect on preventing lung injury (IL-6 in alveolar lavage fluid) [1]: had no effect on preventing lung injury | ability to carry small RNA into cells compared with the transfection reagent RNAiMax group, qPCR [13]: stronger than the transfection reagent RNAiMax group | ability to carry small RNA into cells, qPCR [13]: all had the ability to carry small RNA into cells | rank of ability to carry small RNA in the cell experiments [13]: the strongest ability to carry small RNA in the cell experiments | entry of miR1246 antagomir into lung tissue of mice [14]: could improve the entry of miR1246 antagomir into lung tissue of mice | cell penetration properties [15]: consistent with the results obtained using A549 cells | ability to carry small RNA in murine organs compared with TAT [16]: stronger than that of TAT | entry effect compared with other fragments in different cell lines [17]: even better entry effects | carrying NS1-GFP plasmid into cells and GFP expression [18]: could carry NS1-GFP plasmid into HEK293 cells, and GFP protein was expressed in the nucleus | ability to carry FAM-labeled small RNA compared with transfection reagent RNAiMax [7]: stronger than that of the transfection reagent RNAiMax | ability to carry small RNA compared with TAT at the same concentration [7]: significantly stronger | carrying FAM-labeled small RNA into cells [7]: can all carry small RNA into cells

GRKKRRQRRRPPQ [TAT, reference compound]
cell entry [4]: did not show cell entry | cell entry after 5 min incubation [4]: the entry into the cell was observed | cell entry at 1 h [4]: the effect was obvious | ability to carry small RNA (PGY-sRNA-26) into cells, qPCR [13]: very weak | entry of miR1246 antagomir into lung tissue of mice [14]: almost no effect | carrying NS1-GFP plasmid into cells and GFP expression [18]: almost no expression of GFP fluorescent protein | cell entry of rhodamine-labeled polypeptide [19]: could all enter A549 cells
